What all share (type): cell-based, Mus musculus
One test relates to primary white adipocytes. The experiment in a line: Thermogenic gene expression. To be noted: for Ucp1 expression: primary adipocytes treated with the indicated proteins 1 μg/ml for 24 hr, n = 3 (Fig. 2e).
In another test the test system is UCP1 protein. The experiment in a line: UCP1 protein levels by western blotting in primary white and brown adipocytes. To be noted: NE 100 nM, PTHrP or PTH 100 ng/ml each, 24 hr. Background: In western blotting, separated proteins are transferred to a membrane and probed.
The next test has as its system primary adipocytes. The experiment in a line: Cellular oxygen consumption rate. To be noted: primary white adipocytes, NE 100 nM, PTHrP or PTH 100 ng/ml, 24 hr, n = 4.
For the next test, the system named is primary brown adipocytes. The experiment in a line: Thermogenic gene expression. To be noted: peptides 100 ng/ml for 2 hr, RT-qPCR, n = 3 (Extended Data Fig. 3d). (In general: In qPCR the cycle at which signal appears reflects the starting amount.)

`C=CC(=O)Nc1ccc2ncnc(Nc3ccc(OCc4cccc(F)c4)c(Cl)c3)c2c1` [AST-1306]: the “browning activity present in LLC cell-conditioned medium” value with primary white adipocytes (AST-1306 1 μM and LLC cell-conditioned medium for 24 hr, primary adipocytes, n = 3 (Fig. 3a)) was “largely unaffected”. In addition, the “Ucp1 mRNA induction by BTC, EREG or HBEGF” value in the test on primary white adipocytes (AST-1306 1 μM with BTC, EREG or HBEGF 100 ng/ml for 24 hr, primary adipocytes, n = 3 (Extended Data Fig. 3c)) is “completely blocked Ucp1 mRNA induction”.
In the case of `NC[C@H](O)c1ccc(O)c(O)c1` [NE, norepinephrine], the UCP1 protein levels result in the test on UCP1 protein is reported as “increased UCP1 protein comparably”. The “O2 consumption, including basal, uncoupled and maximal respiration” value in the test on primary adipocytes is “significantly raised O2 consumption”.
Consider “PTH: Synthetic parathyroid hormone 1-34 peptide, purchased from Bachem (SVSEIQLMHNLGKHLNSMERVEWLRKKLQDVHNF; Parathyroid hormone; UniProt P01270 32-65, looked up, fragment)”, for which the UCP1 protein levels entry in the test with UCP1 protein is “increased UCP1 protein comparably”. In addition, the “O2 consumption, including basal, uncoupled and maximal respiration” value in the test with primary adipocytes is listed as “significantly raised O2 consumption”. The thermogenic gene expression entry with primary brown adipocytes is on record as “stimulated thermogenic gene expression”; in the test with primary white adipocytes (primary white adipocytes, peptides 100 ng/ml for 2 hr, RT-qPCR, n = 3 (Fig. 3b)), “stimulated thermogenic gene expression”.
With epiregulin [EREG], in the test on primary white adipocytes (RT-qPCR), the Ucp1 expression result is given as “induced Ucp1 expression”.

B1: heparin binding-EGF (protein, UniProt Q99075 63-148, looked up)
Heparin-binding EGF-like …: DLQEADLDLLRVTLSSKPQALATPNKEEHGKRKKKGKGLGKKRDPCLRKYKDFCIHGECKYVKELRAPSCICHPGYHGERCHGLSL
For the molecule B1, the Ucp1 expression result in the test on primary white adipocytes (RT-qPCR) is “induced Ucp1 expression”.

B2: betacellulin (protein, UniProt P35070 32-111, looked up)
Betacellulin: DGNSTRSPETNGLLCGDPEENCAATTTQSKRKGHFSRCPKQYKHYCIKGRCRFVVAEQTPSCVCDEGYIGARCERVDLFY
Turning to B2, the Ucp1 expression entry with primary white adipocytes (RT-qPCR) is given as “induced Ucp1 expression”.

(Values after PMC4224962 (Nature, 2014).)
